pIC50: −log10 of the molar value.

In the test the target is bovine cerebral TPK1 (Bos taurus, UniProt A0A059UE90). Description: Inhibitory activity against P-GS1 phosphorylation by bovine cerebral TPK1. It counts as biochemical. The following applies: P-GS1 substrate, 41.7 μM [γ-32P] ATP, 25° C., 2 hours. As to the method:
Experiment 1: Inhibitory Activity of the Medicament of the Present Invention Against P-GS1 Phosphorylation by Bovine Cerebral TPK1
A mixture containing 100 mM MES-sodium hydroxide (pH 6.5), 1 mM magnesium acetate, 0.5 mM EGTA, 5 mM β-mercaptoethanol, 0.02% Tween 20, 10% glycerol, 12 μg/ml P-GS1, 41.7 μM [γ^−32P] ATP (68 kBq/ml), bovine cerebral TPK1 and a compound shown in Table (a final mixture contained 1.7% DMSO deriving from a solution of a test compound prepared in the presence of 10% DMSO) was used as a reaction system. The phosphorylation was started by adding ATP, and the reaction was conducted at 25° C. for 2 hours, and then stopped by adding 21% perchloric acid on ice cooling. The reaction mixture was centrifuged at 12,000 rpm for 5 minutes and adsorbed on P81 paper (Whatmann), and then the paper was washed four times with 75 mM phosphoric acid, three times with water and once with acetone. The paper was dried, and the residual radioactivity was measured using a liquid scintillation counter.

bovine cerebral TPK1, sequence (A0A059UE90 1-419): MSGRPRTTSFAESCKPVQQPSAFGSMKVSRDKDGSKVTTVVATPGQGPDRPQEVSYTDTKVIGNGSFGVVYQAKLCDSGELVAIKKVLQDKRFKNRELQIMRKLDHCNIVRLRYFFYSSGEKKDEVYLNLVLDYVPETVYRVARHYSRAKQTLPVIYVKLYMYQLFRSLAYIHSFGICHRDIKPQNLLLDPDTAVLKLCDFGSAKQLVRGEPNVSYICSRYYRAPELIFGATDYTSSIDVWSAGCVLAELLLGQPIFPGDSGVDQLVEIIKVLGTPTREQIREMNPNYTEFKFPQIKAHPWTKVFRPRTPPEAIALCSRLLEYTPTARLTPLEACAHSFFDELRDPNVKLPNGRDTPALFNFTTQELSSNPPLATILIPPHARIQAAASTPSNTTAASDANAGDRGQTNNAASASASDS

The term pIC50 denotes the IC50 on a negative log10 scale, so that one unit is a factor of ten. A high value points to a low IC50. Take `Cn1c(N2CCNC(c3ccc(C#N)cc3)C2)nc(-c2ncncc2F)cc1=O` (centres unmarked) [Compound 6, 4-[4-(5′-Fluoro-1-methyl-6-oxo-1,6-dihydro-[4,4′]bipyrimidinyl-2-yl)-piperazin-2yl]-benzonitrile]: the pIC50 was 8.00.
To `Cn1c(N2CCO[C@@H](c3ccc(F)cc3)C2)nc(-c2ncncc2F)cc1=O` [Compound 1, (S)-5′-fluoro-2-[2-(4-fluoro-phenyl)-morpholin-4-yl]-1-methyl-1H-[4,4′]bipyrimidinyl-6-one] belongs 7.81.

The record behind these values is patent US8940738B2, “Pyrimidone compounds” (Mitsubishi Tanabe Pharma Corporation, priority 2009, dated 2015).
